The values below come from US11680056B2, “MK2 inhibitors and uses thereof” (Xinthera, Inc., priority 2021, dated 2023).

In one test the target is p38a/PRAK (Homo sapiens (Human), UniProt Q16539). As to the kind of experiment: p38a/PRAK biochemical assay: activation of PRAK by p38, FITC-HSP27 peptide phosphorylation (IMAP FP). Conditions: 10-point 1:3 dilution, top dose 300 μM; 60 pM active p38a, 1 nM inactive PRAK, 10 μM ATP, 2 h incubation; read-out: p38a/PRAK Enzyme pIC50 (converted). The method, boiled down: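 GST-tagged MK2 (F46–H400) and PRAK (M1–Q471), expressed in E. coli, activated by p38 and phosphorylate FITC-HSP27 peptide over 2 h with compound; readout by IMAP fluorescence polarisation (ex 485/em 528 nm). Ten-point 1:3 dilutions, top dose 1 μM for MK2 and 300 μM for PRAK. IC50 after vehicle normalisation; selectivity = IC50(PRAK)/IC50(MK2).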

The next test concerns the target p38a/MK2 (Homo sapiens (Human), UniProt P49137+Q16539). As to the kind of experiment: p38a/MK2 biochemical assay: activation of MK2 by p38, FITC-HSP27 peptide phosphorylation (IMAP FP). Conditions: 10-point 1:3 dilution, top dose 1 μM; 60 pM active p38a, 1 nM inactive MK2, 10 μM ATP, 2 h incubation; read-out: p38a/MK2 (1 μM) Enzyme pIC50 (converted).

SMILES strings stand for the structures. Bounds are passed on as bounds.

Sequence of p38a/MK2 (P49137 46-400): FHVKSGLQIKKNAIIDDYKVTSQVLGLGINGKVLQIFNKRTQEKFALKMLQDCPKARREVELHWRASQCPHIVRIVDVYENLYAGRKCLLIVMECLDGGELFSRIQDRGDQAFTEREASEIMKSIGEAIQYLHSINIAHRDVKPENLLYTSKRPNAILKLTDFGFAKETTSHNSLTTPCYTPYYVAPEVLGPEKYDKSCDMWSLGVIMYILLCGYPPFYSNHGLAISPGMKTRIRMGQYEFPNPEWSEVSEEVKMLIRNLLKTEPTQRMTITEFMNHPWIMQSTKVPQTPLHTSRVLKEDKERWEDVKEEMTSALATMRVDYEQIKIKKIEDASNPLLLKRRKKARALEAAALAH
Sequence of p38a/MK2 (Q16539 whole entry): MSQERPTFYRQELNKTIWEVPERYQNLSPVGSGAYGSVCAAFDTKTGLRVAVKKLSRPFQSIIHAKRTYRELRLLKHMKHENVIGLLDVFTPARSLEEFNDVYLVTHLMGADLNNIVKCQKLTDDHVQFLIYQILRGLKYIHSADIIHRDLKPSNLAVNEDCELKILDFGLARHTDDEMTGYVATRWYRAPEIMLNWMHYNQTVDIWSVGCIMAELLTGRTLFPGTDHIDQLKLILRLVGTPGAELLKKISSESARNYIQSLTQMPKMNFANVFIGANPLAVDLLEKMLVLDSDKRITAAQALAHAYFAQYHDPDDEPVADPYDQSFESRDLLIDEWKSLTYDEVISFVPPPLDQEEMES
Sequence of p38a/PRAK (Q16539 whole entry): as above

For the compound `[2H]C([2H])(Oc1cc(C)n(-c2c(C)cnc(-n3ccc(C(C)(C)O)n3)c2F)c(=O)c1Cl)c1ncc(F)cc1F` [Example 58A, rel-3-chloro-4-[(3,5-difluoropyridin-2-yl)(2H2)methoxy]-3′-fluoro-2′-[3-(2-hydroxypropan-2-yl)pyrazol-1-yl]-5′,6-dimethyl-[1,4′-bipyridin]-2-one], the IC50 was 1000 nM at p38a/PRAK and 1.26 nM on p38a/MK2.
Take `[2H]C([2H])(Oc1cc(C)n(-c2c(C)cnc(-c3cccc(C(C)(C)O)[n+]3[O-])c2F)c(=O)c1Cl)c1ncc(F)cc1F` [Example 68A, rel-4′-{3-chloro-4-[(3,5-difluoropyridin-2-yl) (2H2)methoxy]-6-methyl-2-oxopyridin-1-yl}-3′-fluoro-6-(2-hydroxypropan-2-yl)-5′-methyl-[2,2′-bipyridin]-1-ium-1-olate]: the IC50 was over 316000 nM at p38a/PRAK and over 100 nM on p38a/MK2.
